In US20180312463A1 (The Procter & Gamble Company, priority 2015, published 2018):
Structures can show the parent of a compound that is named as a salt.

Experiments:
human TRPM8 [1] = test: TRPM8 Protocol-FLIPR Assay (EC50 analysis of sensate analogs using TRPM8 activation); type: cell-based
Protocol: (§1) The term “TRPM8 agonist”, as used herein, refers to any compound, which when added to a TRPM8 receptor, according to the FLIPR method, as discussed herein, produces any increase in fluorescence over background.
(§2) TRPM8 Protocol-FLIPR Assay
(§3) To determine whether TRPM8 is activated, the intracellular calcium ion (Ca^2+) level was measured from transfected cells with the TRPM8 receptor sequence (SEQ ID NO:). […] Trypsin was inactivated by addition of 8 ml growth medium. Cells were transferred to a 50 ml tube and centrifuged at 850 rpm for 3 minutes to remove medium. After centrifugation, a pellet of cells was formed in the bottom of the tube separating them from the supernatant solution. […] Fluo-4 AM is a fluorescent dye used for quantifying cellular Ca^2+ concentrations in the 100 nM to 1 microM range. At the end of 30 minutes, 45 ml of assay buffer (1× HBSS (Hank's Balanced Salt Solution), 20 mM HEPES (4-(2-Hydroxyethyl)-1-piperazineethanesulfonic acid)) was added to wash cells and the resulting mixture was then centrifuged at 850 rpm for 3 minutes to remove excess buffer and Fluo-4 AM calcium indicator.
(§4) The pelleted cells were re-suspended in 10 ml assay buffer and 90 μl aliquots (50,000 cells) per well delivered to a 96-well assay plate containing 10 μl of test compounds (1 mM in assay buffer, final concentration 100 μM) or buffer control and incubated at room temperature for 30 minutes. After 30 minutes, a plate was placed into a fluorometric imaging plate reader (FLIPR384 from Molecular Devices, Sunnyvale, Calif.) and basal fluorescence recorded (excitation wave length 488 nm and emission wave length 510 nm). Then 20 μl of 100 mM of TRPM8 agonist WS5 coolant in the assay buffer was added and fluorescence recorded. For determining the direct effect of test compounds on TRPM8, fluorescence was measured immediately after addition of each compound (TABLE 7).

human TRPM8 [2] = target: human TRPM8 (UniProt Q8R4D5); test: as above; type: cell-based; conditions: HEK-293 cells stably transfected with human TRPM8, intracellular Ca2+ by Fluo-4 AM fluorescence
Protocol: as §1, §2, §3, §4

[3] = in vivo; cited from earlier work
[4] = Sensory evaluation of coolant activity: panelists brushed with dentifrice and rated cooling intensity; type: in vivo, human; conditions: dentifrice, up to 12 hours after brushing
Protocol: Dentifrices were prepared using conventional methods, such as the protocols described in U.S. Pat. No. 8,747,814, which contained no coolant (SAMPLE A) or having a coolant from TABLE 7 (SAMPLES B and C), in a flavor (peppermint) at 10 parts per million (ppm).
Sensory evaluation studies of coolant activity were conducted using a methodology patterned after the techniques described in M.C. Meilgaard, et al., Sensory Evaluation Techniques, 4th Ed. (2007). Five panelists brushed with a dentifrice from TABLE 8, having no coolant (SAMPLE A) or having a coolant from TABLE 7 (SAMPLES B and C), for two minutes, in a flavor (peppermint) at 10 parts per million (ppm). After brush expectoration, panelists then rinsed their mouth with 15 ml of an aqueous rinse and expectorated.

[5] = HEK-293 cells stably transfected with human TRPM8, intracellular Ca2+ by Fluo-4 AM fluorescence
[6] = HEK-293 cells stably transfected with human TRPM8, unit inferred

Row | SMILES | EC50 (human TRPM8 [1]; [5]) [nM] | TRPM8 (EC50 values) (human TRPM8 [2]) | also measured
1 | CC(C)[C@@H]1CC[C@@H](C)C[C@H]1C(=O)NC[C@@H](NC(=O)CN)c1ccccc1Cl | 20 | – | –
2 | CC(C)[C@@H]1CC[C@@H](C)C[C@H]1C(=O)NC[C@@H](NC(=O)[C@H](C)N)C1CCCCC1 | 28.3 | – | –
3 | CC(C)[C@@H]1CC[C@@H](C)C[C@H]1C(=O)NC[C@@H](NC(=O)[C@H](C)N)c1ccccc1 [Example 7] | 9 | – | –
4 | CC(C)[C@@H]1CC[C@@H](C)C[C@H]1C(=O)NC[C@H](Cc1ccccc1)NC(=O)CN [Example 16] | 58 | – | –
5 | CC(C)[C@@H]1CC[C@@H](C)C[C@H]1C(=O)NC[C@H](O)c1ccccc1 [Example 29] | 374 | – | –
6 | CC(C)[C@@H]1CC[C@@H](C)C[C@H]1C(=O)NC[C@@H](N)c1ccccc1Cl [Example 34, hydrochloride] | – | – | EC50 (human TRPM8 [2]): 770 nM
7 | CC(C)[C@@H]1CC[C@@H](C)C[C@H]1C(=O)NC[C@@H](NC(=O)[C@H](C)NC(=O)OC(C)(C)C)c1ccccc1 [Example 43, dihydrochloride] | – | – | EC50 (human TRPM8 [1]; [6]): 3000 nM
8 | CC(C)[C@@H]1CC[C@@H](C)C[C@H]1C(=O)NCCNC(=O)CNC(=O)OC(C)(C)C [Example 49, tert-butyl (2-((2-((1R,2S,5R)-2-isopropyl-5-methylcyclohexane-1-carboxamido)ethyl)amino)-2-oxoethyl)carbamate] | 40000 | – | –
9 | CC(C)[C@@H]1CC[C@@H](C)C[C@H]1O [L-menthol] | – | – | cooling threshold (concentration where the cooling effect could be clearly recognized) [3]: about 800 ppb
10 | CC(C)[C@@H]1CC[C@@H](C)C[C@@H]1O [Molecule 1-neomenthol, 1-neomenthol] | – | – | cooling threshold (concentration where the cooling effect could be clearly recognized) [3]: about 3,000 ppb
11 | CC(C)[C@@H]1CC[C@@H](C)C[C@H]1C(=O)NC[C@@H](NC(=O)CN)c1ccccc1 [Molecule 1] | – | – | EC50 (human TRPM8 [1]; [6]): < 2 nM
12 | CC(C)[C@@H]1CC[C@@H](C)C[C@H]1C(=O)NC[C@@H](NC(=O)[C@H](C)N)c1ccccc1 [Molecule 2] | 2.7 | – | –
13 | CC(C)[C@@H]1CC[C@@H](C)C[C@H]1C(=O)NC[C@@H](NC(=O)[C@@H](C)N)c1ccccc1 [Molecule 17, (1R,2S,5R)-N-((S)-2-((R)-2-Aminopropanamido)-2-phenylethyl)-2-isopropyl-5-methylcyclohexane-1-carboxamide] | – | – | cooling response over time after brushing (summary of TABLE 9) [4]: high cooling over the course of 12 hours
14 | CC(C)[C@@H]1CC[C@@H](C)C[C@H]1C(=O)NC[C@H](NC(=O)[C@@H](C)N)c1ccccc1 [Molecule 33, (1R,2S ,5R)-N-((R)-2-((R)-2-Aminopropanamido)-2-phenylethyl)-2-isopropyl-5-methylcyclohexane-1-carboxamide] | – | – | cooling response over time after brushing (summary of TABLE 9) [4]: trailed off after 30 minutes
15 | CC(C)[C@@H]1CC[C@@H](C)C[C@H]1C(=O)NC[C@H](NC(=O)OC(C)(C)C)c1ccccc1 [Molecule 52] | – | Too high to measure | –
16 | CC(C)[C@@H]1CC[C@@H](C)C[C@H]1C(=O)NCCNC(=O)[C@@H]1C[C@H](C)CC[C@H]1C(C)C [Molecule 53] | – | Too high to measure | –
17 | CCCCCCCCCCCCCCCC(=O)N[C@H](CNC(=O)[C@@H]1C[C@H](C)CC[C@H]1C(C)C)c1ccccc1 [Molecule 54] | – | Too high to measure | –
18 | CC(C)[C@@H]1CC[C@@H](C)C[C@H]1C(=O)NC[C@@H](NC(=O)[C@@H](N)Cc1ccccc1)c1ccccc1 [Molecule 55] | – | Too high to measure | –
19 | CC(C)[C@@H]1CC[C@@H](C)C[C@H]1C(=O)NCCN(CCN)CCN.Cl.Cl [Molecule 56] | – | Too high to measure | –
20 | CC(C)[C@@H]1CC[C@@H](C)C[C@H]1C(=O)NC[C@H](NC(=O)[C@@H](C)NC(=O)OC(C)(C)C)c1ccccc1 [Molecule 57] | – | Too high to measure | –
21 | CC(C)[C@@H]1CC[C@@H](C)C[C@H]1C(=O)NC[C@@H](NC(=O)OC(C)(C)C)c1ccccc1 [Molecule 58] | – | Too high to measure | –
22 | CC(C)[C@@H]1CC[C@@H](C)C[C@H]1C(=O)NC[C@@H](NC(=O)[C@@H](C)NC(=O)OC(C)(C)C)c1ccccc1 [Molecule 59] | – | Too high to measure | –
23 | CC(C)[C@@H]1CC[C@@H](C)C[C@@H]1O [d-neomenthol] | – | – | cooling threshold (concentration where the cooling effect could be clearly recognized) [3]: about 25,000 ppb
